System: Rats
Assay: Addiction of tramadol and clonidine tablets and compound tablets (withdrawal after 30 days of administration)
Settings: for Number of jumps and body weight loss compared with the blank control group (in words): after 30 consecutive days of administration; for Body weight loss / Number of jumps: within one week after withdrawal
Experimental: Rats weighing approximately 150 g, half male and half female, were taken and randomly divided into 10 groups, that is, a blank control group, a morphine group, a tramadol group, a clonidine group, and compound tablet groups 1 to 6 (the rats in the compound tablet group 1 were administered with the compound tablets of Example 1, the rats in the compound tablet group 2 were administered with the compound tablets of Example 2, the rats in the compound tablet group 3 were administered with the compound tablets of Example 3, the rats in the compound tablet group 4 were administered with the compound tablets of Example 6, the rats in the compound tablet group 5 were administered with the compound tablets of Example 7, and the rats in the compound tablet group 6 were administered with the compound tablets of Example 10).
The rats were administered 3 times a day for 30 days. Administration methods were as follows: (1) the blank control group: PO (oral administration); and 0 mg/kg/time; (2) the morphine group: ip (intraperitoneal injection); and 5 mg/kg/time in week 1, 10 mg/kg/time in week 2, 20 mg/kg/time in week 3, and 30 mg/kg/time from day 22 to day 30; (3) the tramadol group: PO; and 25 mg/kg/time in week 1, 50 mg/kg/time in week 2, 100 mg/kg/time in week 3, and 200 mg/kg/time from day 22 to day 30; (4) the clonidine group: PO; and 0.075 mg/kg/time in week 1, 0.15 mg/kg/time in week 2, 0.3 mg/kg/time in week 3, and 0.6 mg/kg/time from day 22 to day 30; (5) the compound tablet groups: PO; and 25 mg/kg/time in week 1, 50 mg/kg/time in week 2, 100 mg/kg/time in week 3, and 200 mg/kg/time from day 22 to day 30. Withdrawal symptoms and body weight changes within one week after withdrawal of the rats in each group were observed.

[1] = ip 3 times a day for 30 days, 5/10/20/30 mg/kg/time rising by week
[2] = PO 3 times a day for 30 days, 25/50/100/200 mg/kg/time rising by week

**Q.** How did the “Number of jumps and body weight loss compared with the blank control group (in words)” value turn out when `CN1CC[C@]23c4c5ccc(O)c4O[C@H]2[C@@H](O)C=C[C@H]3[C@H]1C5` [Morphine group, morphine] was run?
**A.** Its value is “extremely significant differences”.

**Q.** And the “Body weight loss” value [1]?
**A.** Its value is 10.1 ± 2.1 g.

**Q.** And the Number of jumps [1]?
**A.** Its Number of jumps is 20.1 ± 2.1.

**Q.** With `COc1cccc(C2(O)CCCCC2CN(C)C)c1` (stereo not drawn) [Tramadol group, tramadol] as the compound, how does the “Body weight loss” value [2] read?
**A.** Its value is 9.6 ± 2.3 g.

**Q.** And the Number of jumps [2]?
**A.** The Number of jumps was 17.3 ± 1.9.

**Q.** What about the “Number of jumps and body weight loss compared with the blank control group (in words)” value of the same compound?
**A.** The value was “extremely significant differences”.
